From patent US10828436B2, “Administering the noble gas argon during cardiopulmonary resuscitation” (Vanderbilt University, priority 2016, dated 2020)

What was measured:
[1] = system: coronary artery endothelial cells; assay: Hypoxia/reoxygenation in isolated cells, LDH injury marker; type: cell-based, human; conditions: Argon for 10 min or 30 min upon reoxygenation after hypoxia, vs control HR with nitrogen
Method: (§1) These experiments show no evidence that Argon, given for 10 min or 30 min upon reoxygenation (R) after hypoxia (H), directly improves the cellular injury marker lactate dehydrogenase (LDH) compared to control HR with nitrogen.

human cardiomyocytes = assay: as above; type: cell-based; conditions: Argon for 10 min or 30 min upon reoxygenation after hypoxia, vs control HR with nitrogen
Method: as §1
(§2) In one example, in-vivo experiments included a systematic study of the effect of Argon administered during CPR in a pig model of cardiac arrest on cardiac and neurological function, histological and other molecular effects after ROSC including 24- or 48 hr survival studies. […] Other examples include cell culture (in vitro) and isolated heart (ex vivo) experiments. The in vitro experiments include a systematic study of the effect of Argon administered on reoxygenation after prolonged hypoxia on markers of cellular injury and cell death in cardiomycytes and neuronal cell cultures. The ex vivo experiments include a systematic study of the effect of Argon administered on reperfusion after global coronary ischemia on coronary and myocardial function and infarct size in rat isolated hearts.

rat isolated hearts = assay: Rat isolated hearts, 30 min global no-flow ischemia and 120 min reperfusion; conditions: for defibrillation by lidocaine administration required to convert back to sinus rhythm: vs control hearts, P<0.05
Excerpt: as §2

[2] = system: pig model of cardiac arrest; assay: Pig model of cardiac arrest and CPR with Argon/O2 given during CPR before ROSC; type: in vivo
Method: Argon treatment led to higher systemic pulse pressures (arterial pressure during compression minus pressure during decompression), a lower number of defibrillation attempts and epinephrine requirements to achieve ROSC, a higher ROSC rate, lower lactic acidosis upon ROSC and lower cardiac injury markers (CK-MB and Troponin I) 6 hours after ROSC.
as §2, with “hearts. […]” for “hearts.”

rat isolated lungs = assay: Rat isolated lungs, pulmonary vascular resistance under different gas mixtures
Method: Rat isolated lungs ventilated with either 65% N2 or 65% Argon plus 30% O2 and 5% CO2 and perfused at a rate of 40 mL/kg body weight with physiological salt solution plus 4% albumin via cannulas placed into the pulmonary artery (PA) and left atrium. PA pressure is recorded throughout the experiment and analyzed to determine the effect of different gas mixtures on the pulmonary vascular resistance. Argon led to a reversible 28% drop in pulmonary perfusion pressure at constant flow compared to ventilation with Nitrogen before and after. P<0.05*vs Nitrogen, † vs Argon.

[3] = 65% Argon for 10 or 120 min of reperfusion vs 65% Nitrogen
[4] = gas mixture given during CPR, pigs

What does the source list for `[Ar]` [Argon, argon]?
improvement of cellular injury marker lactate dehydrogenase (LDH) [1]: no evidence; improvement of cellular injury marker lactate dehydrogenase (LDH) (human cardiomyocytes): no evidence; coronary or myocardial function (diastolic and developed left ventricular pressure, coronary flow) (rat isolated hearts; [3]): no evidence of improved; infarct size (rat isolated hearts; [3]): no evidence of improved; defibrillation by lidocaine administration required to convert back to sinus rhythm (rat isolated hearts): significantly less; defibrillation by lidocaine administration required to convert back to sinus rhythm (rat isolated hearts; listed as 70% Argon): less; outcome parameters ([2]; CPR with 70% Argon, compared to control animals without Argon during CPR, in words): much improved; systemic pulse pressures (arterial pressure during compression minus pressure during decompression) ([2]; during CPR, vs Nitrogen/O2, in words): higher; Arterial pH upon ROSC [2, 4]: 7.27 ± 0.05; CK-MB 6 hrs after ROSC [2, 4]: 15.2 ± 4.3 ng/mL; Epinephrine dose to achieve ROSC [2, 4]: 0.7 ± 0.2 mg; Lactate upon ROSC [2, 4]: 6.8 ± 0.7 mEq; Number of defibrillations to achieve ROSC [2, 4]: 2.4 ± 1.0 n; Pulse pressure at 3 min CPR [2, 4]: 62.3 ± 3.7 mmHg; ROSC [2, 4]: 100%; Troponin I 6 hrs after ROSC [2, 4]: 6.8 ± 4.7 ng/mL; ROSC rate ([2]; vs Nitrogen/O2, in words): higher; cardiac injury markers (CK-MB and Troponin I) 6 hours after ROSC ([2]; vs Nitrogen/O2, in words): lower; epinephrine requirements to achieve ROSC ([2]; vs Nitrogen/O2, in words): lower; lactic acidosis upon ROSC ([2]; vs Nitrogen/O2, in words): lower; number of defibrillation attempts to achieve ROSC ([2]; vs Nitrogen/O2, in words): lower; number of defibrillation attempts to achieve ROSC ([2]; vs Nitrogen/O2, in words, listed as 70% Argon): less; drop in pulmonary perfusion pressure at constant flow (rat isolated lungs; 65% Argon plus 30% O2 and 5% CO2, reversible, vs ventilation with Nitrogen before and after): 28%; pulmonary artery pressure at constant flow (rat isolated lungs; isolated lungs, in words): lower
